Patent US9051345B2, “Metalloinsertor complexes targeted to DNA mismatches” (CALIFORNIA INSTITUTE OF TECHNOLOGY, priority 2011, dated 2015)

What was measured:
HCT116O cells = test: Cell death mode flow cytometry assay (YO-PRO-1 / PI dye exclusion); assay type: cell-based, human; conditions: for mode of cell death: YO-PRO-1 and PI, HCT116O versus HCT116N
Description: (§1) To characterize the cell death occurring in response to rhodium treatment, a dye exclusion flow cytometry assay was used as described in Idziorek et al., 1995 J. Immunol. Methods, 185, 249-258, the entire contents of which is incorporated herein by reference. The assay differentiates between live cells, dead cells, and cells undergoing apoptosis or necrosis through concurrent staining with propidium iodide (a dead cell permeable dye) and YO-PRO-1 (an apoptotic cell permeable dye). By plotting the fluorescence of the YO-PRO-1 channel against the PI channel, a pattern emerges. Healthy cells are seen in the lower lefthand corner of the plot in FIGS. 36A-36D. […] Dead cells admit both dyes and are therefore seen in the upper righthand quadrant of the image. Upon flow cytometry analysis, cells can be classified as live, apoptotic, necrotic, or dead by defining regions in the fluorescence plane corresponding to each category.
(§2) The HCT116N and HCT116O cell lines were incubated with 0-25 μM of [Rh(HDPA)2chrysi]^3+ for 24-72 hours. After harvesting the cells and staining with both PI and YO-PRO-1, the cells were analyzed by flow cytometry to obtain raw fluorescence data. Representative data for 20 μM rhodium treatment for 72 hours are shown. YO-PRO-1 fluorescence is shown on the y-axis, and PI fluorescence is shown on the x-axis. The raw data were analyzed by gating the fluorescence events into one of four categories, depending on the fluorescence levels of the two dyes. FIGS. 37A-37B also show histograms of live, apoptotic, necrotic, and dead cells for the HCT116N and HCT116O cell lines based on the flow cytometry. Treatment with the indicated rhodium complex was either 15 or 20 µM [Rh(HDPA)2chrysi]^3+ for 72 hours.
(§3) After 24, 48, or 72 hour incubation with the selected rhodium complex, cells were harvested from adherent culture by trypsinization and washed with cold PBS, and centrifuged at 2,000 rpm for 5 minutes. The resultant pellets were resuspended in PBS to a concentration of 10^6 cells/mL and stained with propidium iodide to a final concentration of 1 μg/mL and with YO-PRO-1 (an apoptotic cell permeable dye) to a final concentration of 200 nM for 30 minutes prior to analysis by flow cytometry.

HCT116N cells = test: as above; assay type: cell-based, human; conditions: 20 μM, 72 hours, untreated 62±0.6%
Description: as §1, §2, §3

[Rh(HDPA)2chrysi]^3+
live cells HCT116O after treatment (HCT116O cells; 20 μM, 72 hours, untreated 79±3.8%): 37±5.3%
mode of cell death (HCT116O cells): induces necrosis preferentially in the MMR-deficient HCT116O cell line
mode of cell death (HCT116O cells; listed as [Rh(HDPA)2chrysi]3^+): necrotic rather than apoptotic pathway
change in percentage of cells in the apoptotic region (HCT116O cells; either cell line): no significant change
live cells HCT116N after treatment (HCT116N cells): 54±5.1%
